Measurements from patent US20250222109A1, “STRUCTURED LIPID COMPOSITIONS” (Universität Bern, priority 2022, published 2025).

How the values were obtained:
[1] = SAXS phase identification of MLO-water mesophases (TIF-Gel); assay type: physicochemical; settings: 10% w/w of drug; lamellar at room temperature, cubic (Ia3d) at 38° C.
Procedure: SAXS measurements were used to determine the phase identity and symmetry of the produced LMPs. Measurements were performed on a Bruker AXS Micro, with a microfocused X-ray source, operating at voltage and filament current of 50 kV and 1000 μA, respectively. The Cu Kα radiation (λCu Kα=1.5418 Å) was collimated by a 2D Kratky collimator, and the data were collected by a 2D Pilatus 100K detector. The scattering vector Q=(4π/λ) sin θ, with 2θ being the scattering angle, was calibrated using silver behenate. Data were collected and azimuthally averaged using the Saxsgui software to yield 1D intensity vs. scattering vector Q, with a Q range from 0.001 to 0.5 Å^−1. For all measurements the samples were placed inside a stainless-steel cell between two thin replaceable mica sheets and sealed by an O-ring, with a sample volume of 10 μL and a thickness of ˜1 mm. Measurements were performed at 25° C., 30° C., 34° C., 36° C. and 38° C. Samples were equilibrated for 10 min before measurements whereas scattered intensity was collected over 30 min and over 60 min in case of lamellar phase. On the other hand, for the kinetic study, the sample was pre equilibrated at 25° C. and inserted in the sample holder kept at 38° C. and the scattered intensity collected over 5 min. To determine the structural parameters such as the size of the water channels, SAXS data information on the lattice were combined with the composition of the samples (R. Mezzenga, et al., Shear rheology of lyotropic liquid crystals: a case study, Langmuir 21, 3322-3333 (2005)).
MLO was used as the lipid component of the mesophases and mixed with weighed amounts of drugs (10% w/w) in sealed Pyrex tubes and alternatively centrifuging (10 min, 5000 g) several times at room temperature until a homogenous mixture was obtained. The mesophase was then equilibrated for 48 h at room temperature in the dark (see, FIGS. 1A and 1B).
Firstly, small angle X-ray scattering (SAXS) measurements were used to determine the optimal amount of water needed to obtain a lamellar phase which provides a transition to a cubic at 38° C. (FIGS. 2B and 2C). The X-ray beam directed at the gel results in a scattering pattern with a set of maxima, that correspond to sharp Bragg reflections characteristic of the long-range positional order. The sequence of Bragg reflections (and their ratio; listed in FIG. 2A) identifies the symmetry of the mesophase studied (See also FIGS. 1A and 1B).

[2] = Stability study of TAC and TOFA-loaded TIF-Gel (HPLC); assay type: physicochemical; settings: 4° C. and 25° C., one-month period
Procedure: The TAC and TOFA-loaded TIF-Gels were prepared according to Example 1. […] The TAC-loaded TIF-Gel composition comprised a) a carrier comprising: a1) water in an amount of 16% by weight of the carrier; and a2) MLO in an amount of 84% by weight of the carrier; and b) TAC in an amount of 1% by weight of the composition. […] At specific time points, an aliquot of the formulation was analysed at the HPLC, and the content of the drug was recorded. Data are expressed as relative percentage referred to day 0.

Structure (SMILES): C=CC[C@@H]1/C=C(\C)C[C@H](C)C[C@H](OC)[C@H]2O[C@@](O)(C(=O)C(=O)N3CCCC[C@H]3C(=O)O[C@H](/C(C)=C/[C@@H]3CC[C@@H](O)[C@H](OC)C3)[C@H](C)[C@@H](O)CC1=O)[C@H](C)C[C@@H]2OC [TAC, tacrolimus]
- effect of drug on phase identity and transition temperature of the gel [1]: did not affect the phase identity and the transition temperature
- long-term stability of drug loaded into TIF-gel (drug content by HPLC) [2]: stable
